According to US12310946B2, “Pharmaceutical composition for oral administration of edaravone and method of administering same” (MITSUBISHI TANABE PHARMA CORPORATION, priority 2020, dated 2025):

Columns and labels:
[1] = tested on: P-gp and BCRP; assay: Caco-2 transcellular transport study, efflux ratio with and without P-gp and BCRP inhibitors; type: in vitro ADME; details: human, Caco-2
Experimental: (§1) Cell membrane permeability is known to be constant regardless of the concentration of the substance when no transporter is involved. The control compounds, propranolol and mannitol, are not substrates for transporters P-gp and BCRP expressed in Caco-2 cells, and thus the values of the permeability coefficient are not considered to change depending on the concentrations used in the test. Thus, further, the following study was conducted to confirm that edaravone is not a substrate for transporters P-gp and BCRP as well.
(§2) That is, Caco-2 cells were seeded on a 96-well plate, cultured at 37° C. for 10 to 11 days in a CO2 incubator, and then a transcellular transport study was conducted. Then, a […] was calculated. The efflux ratio was calculated as the ratio of the mean values of Papp calculated from three measurements.

[2] = tested on: transporters P-gp and BCRP expressed in Caco-2 cells; assay: as above; type: in vitro ADME; details: Caco-2 cells
Experimental: as §1, §2

[3] = Clinical study #6: PK of edaravone oral formulation (formula #3) via PEG tube in ALS patients; type: in vivo, human; details: for Cmax: 105 mg
Experimental: Pharmacokinetics of edaravone in administration of the edaravone oral formulation via a PEG tube was evaluated. Specifically, a clinical study #6 described below was conducted in ALS patients with a percutaneous endoscopic gastrostomy tube (PEG tube) (the patient group).
The edaravone oral formulation was administered via a PEG tube to the patient group in fasted conditions after a lapse of 10 hours or longer from consumption of a meal. That is, first, 100 mL of lukewarm water was injected through a PEG tube 1 hour before the administration of the edaravone oral formulation, and 10 mL of lukewarm water was injected through a PEG tube immediately before the administration. Then, the edaravone oral formulation was administered to the PEG tube, and further 10 mL of water was injected through the PEG tube three times to wash in the edaravone oral formulation. In the patient group, ALS patients who had been already administered with an edaravone intravenous infusion formulation were administered with the edaravone oral formulation via a PEG tube after a lapse of 48 hours or longer from the time of completion of the previous administration of the intravenous infusion formulation. Blood samples were each collected before the administration, and 15 minutes, 30 minutes, 1 hour, 2 hours, 4 hours, 8 hours, and 24 hours after the administration, and the concentrations of unchanged edaravone in plasma were measured. […] For the reference example, the results of the reference group in Example 4, in which the edaravone oral formulation of the same formula #3 was administered orally and blood samples were collected, were utilized.
The resulting PK parameters were corrected for body weight of each subject in the patient group adjusted to 70 kg by a proportional calculation. In addition, the results of the PK parameters after correction of the patient group are shown in individual plots as #6 in FIG. 3. A comparison was made between the patient group administered via a PEG tube in Table 10 below and the reference group administered orally in Table 9 above. […] Thus, the difference in the Cmax and the difference in the AUC before weight correction between the patient group administered via a PEG tube and the reference group administered orally seen in Table 10 below are considered due to the difference in body weight between the patient group administered via a PEG tube and the reference group administered orally, and the difference in the Cmax and the difference in the AUC after weight correction between the patient group administered via a PEG tube and the reference group administered orally seen in FIG. 3 are each considered to be within the range of error.

[4] = Clinical study #11: PK of edaravone oral formulation (formula #3) via nasopharyngeal gastric tube vs oral in healthy adults; type: in vivo, human; details: for AUC(0-inf) / Cmax / AUC / half-life / Tmax: human, plasma; for AUC(0-inf) / Cmax: 105 mg; for Tmax: read-out: tmax (median)
Experimental: Pharmacokinetics of edaravone in administration of the edaravone oral formulation via a PEG tube was evaluated in 36 healthy adults. Specifically, performing gastrostomy in healthy adults is difficult, thus a nasopharyngeal gastric tube (NG tube), which allows the administration into the stomach via a tube in the same manner, was used as a model of administration via a percutaneous endoscopic gastrostomy tube (PEG tube), and a clinical study #11 described below was conducted.
The edaravone oral formulation (#3) was administered via a nasopharyngeal gastric tube (NG tube) to the subject group in fasted conditions after a lapse of 10 hours or longer from consumption of a meal. In the administration via an NG tube, first, 100 mL of lukewarm water was injected through an NG tube 1 hour before the administration of the edaravone oral formulation, and 10 mL of lukewarm water was injected through an NG tube immediately before the administration. Then, the edaravone oral formulation was administered to the NG tube, and further 30 mL of water was injected through the NG tube to wash in the edaravone oral formulation. Blood samples were each collected before the administration, and 5 minutes, 15 minutes, 30 minutes, 45 minutes, 1 hour, 1.5 hours, 2 hours, 4 hours, 6 hours, 8 hours, 10 hours, 12 hours, 24 hours, 36 hours, and 48 hours after the administration, and the concentrations of unchanged edaravone in plasma were measured. As a reference example, the same edaravone oral formulation was administered orally to the same subjects, blood samples were collected, and the concentrations of unchanged edaravone in plasma were measured in the same manner. For the oral administration, the edaravone oral formulation was administered orally after a lapse of 10 hours or longer from the previous meal consumption. None of the subjects consumed a next meal until the blood sample collection 4 hours after the administration was completed. In addition, results of an analysis of variance conducted on the AUC and Cmax in consideration of the meal condition are shown in Table 14 below.

[5] = Oxidation of edaravone depending on pH; type: physicochemical; details: dependence on pH
[6] = Caco-2 cell monolayer membrane permeability test; details: human, Caco-2, pH 7.4
Experimental: (§3) Caco-2 cells were seeded on a 24-well plate, cultured at 37° C. for 21 to 23 days in a CO2 incubator, and then a Caco-2 cell monolayer membrane permeability test was conducted. After checking the membrane resistance value of the cell layer after the culture, the culture medium in the plate was replaced with HBSS (pH 7.4). […] For the control compounds, [^3H]propranolol as a high membrane permeability control and [^14C]mannitol as a low membrane permeability control were used.

[7] = tested on: Caco-2 cells; assay: Caco-2 cell monolayer membrane permeability test
Experimental: as §3

[8] = after weight correction (70 kg)
[9] = human, plasma, 105 mg via PEG tube, fasted, ALS patients, mean, before weight correction
[10] = Nasopharyngeal gastric tube / Oral, least squares mean ratio
[11] = other: nasopharyngeal gastric tube (NG tube), formula #3 (105 mg), Nasopharyngeal gastric tube, fasted (N = 36), mean
[12] = formula #3 (105 mg), Oral, fasted (N = 36), mean

Structure (SMILES): CC1=NN(c2ccccc2)C(=O)C1 [Edaravone, 3-methyl-1-phenyl-2-pyrazolin-5-one]
- efflux ratio at 10 μmol/L ([1]; 10 μmol/L, no inhibitor): 0.9
- efflux ratio ([1]; in presence or absence of inhibitors): ≤ 2
- substrate for P-gp and BCRP [2]: not a substrate for P-gp and BCRP
- difference in the AUC between the patient group administered via a PEG tube and the reference group administered orally [3, 8]: 9.5%
- difference in the Cmax between the patient group administered via a PEG tube and the reference group administered orally [3, 8]: 8.3%
- difference in the AUC between the patient group administered via a PEG tube and the reference group administered orally ([3]; before weight correction): 33%
- difference in the Cmax between the patient group administered via a PEG tube and the reference group administered orally ([3]; before weight correction): 30%
- Cmax ([3]; human, plasma, 105 mg via PEG tube, ALS patients, corrected to 70 kg, read-out: Cmax after weight correction, mean value±standard error): 1580 ± 251 ng/mL
- Cmax ([3]; human, plasma, 105 mg via PEG tube, fasted, ALS patients, mean, before weight correction, read-out: Cmax): 2160 ng/mL
- AUC ([3]; human, plasma, 105 mg via PEG tube, ALS patients, corrected to 70 kg, read-out: AUC after weight correction, mean value±standard error): 1700 ± 228 ng·h/mL
- AUC(0-inf) [3, 9]: 2340 ng·h/mL
- Tmax [3, 9]: 19.8 min
- AUC0-∞ Ratio [4, 10]: 0.981
- Cmax Ratio [4, 10]: 1.052
- AUC(0-inf) ([4]; other: nasopharyngeal gastric tube (NG tube), Nasopharyngeal gastric tube, analysis of variance, read-out: AUC0-∞ Least-square mean): 2500 ng·h/mL
- Cmax ([4]; other: nasopharyngeal gastric tube (NG tube), Nasopharyngeal gastric tube, analysis of variance, read-out: Cmax Least-square mean): 2430 ng/mL
- AUC(0-inf) ([4]; other: nasopharyngeal gastric tube (NG tube), formula #3 (105 mg), Nasopharyngeal gastric tube, fasted (N = 36), mean, read-out: AUC0-∞): 2620 ng·h/mL
- Cmax ([4]; other: nasopharyngeal gastric tube (NG tube), formula #3 (105 mg), Nasopharyngeal gastric tube, fasted (N = 36), mean, read-out: Cmax): 2780 ng/mL
- AUC [4, 11]: 2590 ng·h/mL
- half-life [4, 11]: 812 min
- Tmax ([4]; other: nasopharyngeal gastric tube (NG tube), formula #3 (105 mg), Nasopharyngeal gastric tube, fasted (N = 36)): 15 min
- AUC(0-inf) ([4]; po, Oral, analysis of variance, read-out: AUC0-∞ Least-square mean): 2550 ng·h/mL
- Cmax ([4]; po, Oral, analysis of variance, read-out: Cmax Least-square mean): 2310 ng/mL
- AUC(0-inf) ([4]; po, formula #3 (105 mg), Oral, fasted (N = 36), mean, read-out: AUC0-∞): 2660 ng·h/mL
- Cmax ([4]; po, formula #3 (105 mg), Oral, fasted (N = 36), mean, read-out: Cmax): 2470 ng/mL
- AUC [4, 12]: 2610 ng·h/mL
- half-life [4, 12]: 1290 min
- Tmax ([4]; formula #3 (105 mg), Oral, fasted (N = 36)): 30 min
- oxidation of edaravone [5]: accelerated at a pH of 2.5 or lower and at a pH of 6.0 or higher
- Papp A→B at 2 h, 100 μmol/L [6]: 32 ± 1.7 ×10⁻⁶ cm/s
- membrane permeability relative to high permeability control ([7]; Caco-2, vs propranolol): equal to or higher than that of propranolol
- permeability classification under Biopharmaceutics Classification System ([7]; based on Caco-2 membrane permeability test): high permeability compound
